Data on 46 molecules can be found in ChEMBL document CHEMBL1149579, “N-(5-chloro-2-(hydroxymethyl)-N-alkyl-arylsulfonamides as gamma-secretase inhibitors” (Bioorg Med Chem Lett, 2007).

Each structure is given as a SMILES string.

For one data set, the target named is Gamma-secretase. Briefly: Inhibition of gamma secretase-mediated beta-APP cleavage in human H4 cells assessed by measuring Abeta40 production by ELISA. It is filed as cell-based.
In data set [1] the test system is Mus musculus. Briefly: Decrease in amyloid beta level in Tg2576 betaAPP swedish transgenic mouse brain at 500 umol/kg, po after 3 hrs. It is filed as functional. Set-up: scale not given: the % may be the effect or the level left.
Data set [2] is described as follows: Drug level in Tg2576 betaAPP swedish transgenic mouse plasma at 500 umol/kg, po after 3 hrs. The format is ADME, organism-based.
Data set [3] can be described thus: Drug level in Tg2576 betaAPP swedish transgenic mouse brain at 500 umol/kg, po after 3 hrs. The following applies: read-out: Drug uptake. The format is ADME, organism-based.
In data set [4] the test system is Mus musculus. Briefly: Decrease in amyloid beta level in Tg2576 betaAPP swedish transgenic mouse brain at 500 umol/kg, sc twice a day for 5 days. The format is functional. Set-up: scale not given: the % may be the effect or the level left.
A short description of data set [5]: Drug level in Tg2576 betaAPP swedish transgenic mouse plasma at 500 umol/kg, sc twice a day for 5 days. The format is ADME, organism-based.
Data set [6] is described as follows: Drug level in Tg2576 betaAPP swedish transgenic mouse brain at 500 umol/kg, sc twice a day for 5 days. It is filed as ADME, organism-based. The following applies: read-out: Drug uptake.
Data set [7] is described as follows: Protein binding in mouse plasma at 10 ug/mL. The format is ADME, cell-free. The following applies: read-out: PPB.
Data set [8] is described as follows: Protein binding in rat plasma at 10 ug/mL. The format is ADME, cell-free. To be noted: read-out: PPB.
Data set [9] in a line: Protein binding in human plasma at 10 ug/mL. The format is ADME, cell-free. The following applies: read-out: PPB.

On to `CCN(c1cc(Cl)ccc1CO)S(=O)(=O)c1ccc(Cl)cc1`, for which the IC50 at Gamma-secretase was 13 nM.

For `CC(CCF)N(c1cc(Cl)ccc1CO)S(=O)(=O)c1ccc(Cl)cc1` (centres undefined), at Gamma-secretase, the IC50 was 25 nM. Same read-out and setting: the result for `CCCC(C)N(c1cc(Cl)ccc1CO)S(=O)(=O)c1ccc(F)cc1` (centres undefined) reads 66 nM. On Gamma-secretase, `CCCC(C)N(c1cc(Cl)ccc1CO)S(=O)(=O)c1ccc(Cl)cc1` (centres undefined) came in with an IC50 of 19 nM.

On Gamma-secretase, `CCCC(C)N(c1cc(Cl)ccc1CO)S(=O)(=O)c1ccc(C(F)(F)F)cc1` (centres undefined) showed a half-inhibitory concentration (IC50) of 72 nM.

As for `CCCC(C)N(c1cc(Cl)ccc1CO)S(=O)(=O)c1ccc(C#N)cc1` (centres undefined), 180 nM corresponded to half-maximal inhibition at Gamma-secretase (IC50). With `CC(C1CC1)N(c1cc(Cl)ccc1CO)S(=O)(=O)c1ccc(Cl)cc1` (centres undefined), at Gamma-secretase, the IC50 stood at 49 nM. Turning to `CCCC(C)N(c1cc(Cl)ccc1CO)S(=O)(=O)c1ccc(Cl)c(Cl)c1` (centres undefined), on Gamma-secretase, half-maximal inhibition (IC50) required 240 nM. With `CCCC(C)N(c1cc(Cl)ccc1CO)S(=O)(=O)c1ccc(Cl)cc1Cl` (centres undefined), the IC50 against Gamma-secretase was 560 nM. On Gamma-secretase, `CC(c1ccc(Cl)cc1)N(c1cc(Cl)ccc1CO)S(=O)(=O)c1ccc(Cl)cc1` (centres undefined) returned an IC50 of 22 nM. `CCCN(c1cc(Cl)ccc1CO)S(=O)(=O)c1ccc(C)cc1` returned an IC50 against Gamma-secretase of 750 nM. `CCCCN(c1cc(Cl)ccc1CO)S(=O)(=O)c1ccc(C)cc1` yielded an IC50 at Gamma-secretase of 1300 nM. `Cc1ccc(S(=O)(=O)N(CC(C)C)c2cc(Cl)ccc2CO)cc1` returned an IC50 against Gamma-secretase of 700 nM. `Cc1ccc(S(=O)(=O)N(CCC(C)(C)C)c2cc(Cl)ccc2CO)cc1` returned an IC50 against Gamma-secretase of 2000 nM. Turning to `CCCC(C)N(c1cc(Cl)ccc1CO)S(=O)(=O)c1ccc(C)cc1` (centres undefined), the IC50 against Gamma-secretase was 40 nM.

As to `Cc1ccc(S(=O)(=O)N(c2cc(Cl)ccc2CO)C(C)CC(C)(C)C)cc1` (centres undefined), the midpoint of inhibition at Gamma-secretase, the IC50, lay at 350 nM. Same read-out and setting: the result for `Cc1ccc(S(=O)(=O)N(c2cc(Cl)ccc2CO)C(C)C2CCCCC2)cc1` (centres undefined) reads 190 nM; that for `CCC(CC)N(c1cc(Cl)ccc1CO)S(=O)(=O)c1ccc(C)cc1`, 1000 nM.

In turn, `CCCC(C)N(c1cc(Cl)ccc1CO)S(=O)(=O)c1ccccc1` (centres undefined) gave an IC50 at Gamma-secretase of 1200 nM. The molecule `CCCC(C)N(c1cc(Cl)ccc1CO)S(=O)(=O)c1ccc(C(C)C)cc1` (centres undefined) returned an IC50 against Gamma-secretase of 720 nM. Take `CC(Cc1ccccc1)N(c1cc(Cl)ccc1CO)S(=O)(=O)c1ccc(Cl)cc1` (centres undefined): the IC50 at Gamma-secretase was found to be 41 nM. On Gamma-secretase, `CC(C1CCC1)N(c1cc(Cl)ccc1CO)S(=O)(=O)c1ccc(Cl)cc1` (centres undefined) showed an IC50 of 12 nM.

Molecule `CC(C1CCCC1)N(c1cc(Cl)ccc1CO)S(=O)(=O)c1ccc(Cl)cc1` (centres undefined) returned an IC50 at Gamma-secretase of 14 nM. Same read-out and setting: the result for `C/C=C/C(C)N(c1cc(Cl)ccc1CO)S(=O)(=O)c1ccc(Cl)cc1` (centres undefined) reads 140 nM.

In turn, `CC[C@H](C)N(c1cc(Cl)ccc1CO)S(=O)(=O)c1ccc(C)cc1` had an IC50 against Gamma-secretase of 1300 nM.

With `CC[C@@H](C)N(c1cc(Cl)ccc1CO)S(=O)(=O)c1ccc(C)cc1`, at Gamma-secretase, the IC50 turned out to be 100 nM. On Gamma-secretase, `CCC[C@H](C)N(c1cc(Cl)ccc1CO)S(=O)(=O)c1ccc(C)cc1` returned an IC50 of 3700 nM. For `CCC[C@@H](C)N(c1cc(Cl)ccc1CO)S(=O)(=O)c1ccc(Cl)cc1`, the Activity was found to be 25% in the data set with Mus musculus [1] and 38% with Mus musculus [4]. Further, the values for the concentration at 3 h in [2] and in data set [3] were 1.6 µM and 5.2 µM, respectively. For the same molecule, the values for the concentration at 120 h in data set [5] and in data set [6] were 21 µM and 14 µM, respectively. Besides, the fraction unbound at 10 ug/mL in [7], in [8] and in data set [9] was under 0.01 throughout. Molecule `C[C@H](CCc1ccccc1)N(c1cc(Cl)ccc1CO)S(=O)(=O)c1ccc(Cl)cc1` returned a half-inhibitory concentration (IC50) on Gamma-secretase of 4 nM.

Take `CCCC[C@@H](C)N(c1cc(Cl)ccc1CO)S(=O)(=O)c1ccc(Cl)cc1`: the IC50 against Gamma-secretase is 5 nM.

Molecule `CCC[C@@H](C)N(c1cc(Cl)ccc1CO)S(=O)(=O)c1ccc(C)cc1` displayed an IC50 on Gamma-secretase of 24 nM.

`C=CC[C@@H](C)N(c1cc(Cl)ccc1CO)S(=O)(=O)c1ccc(Cl)cc1` came in with an IC50 at Gamma-secretase of 14 nM. Turning to `CCCC(C)N(c1cc(Cl)ccc1CO)S(=O)(=O)c1c(Cl)cc(Cl)cc1Cl` (centres undefined), the IC50 against Gamma-secretase is over 25000 nM. Regarding `CC(c1ccc2ccccc2c1)N(c1cc(Cl)ccc1CO)S(=O)(=O)c1ccc(Cl)cc1` (centres undefined), inhibition at Gamma-secretase was half-maximal at 100 nM (IC50).

For the molecule `CC(C1CCCCC1)N(c1cc(Cl)ccc1CO)S(=O)(=O)c1ccc(Cl)cc1` (centres undefined), at Gamma-secretase, the IC50 came to 33 nM. Molecule `Cc1ccc(S(=O)(=O)N(CC2CCCCC2)c2cc(Cl)ccc2CO)cc1` gave an IC50 on Gamma-secretase of 1000 nM. Same read-out and setting: the result for `CCCCN(c1cc(Cl)ccc1CO)S(=O)(=O)c1ccc(Cl)cc1` reads 140 nM; that for `CCCC(C)N(c1cc(Cl)ccc1CO)S(=O)(=O)c1ccc(OC)cc1` (centres undefined), 1300 nM; that for `CC(C)CC(C)N(c1cc(Cl)ccc1CO)S(=O)(=O)c1ccc(Cl)cc1` (centres undefined), 23 nM. The molecule `CC(CCCF)N(c1cc(Cl)ccc1CO)S(=O)(=O)c1ccc(Cl)cc1` (centres undefined) showed an IC50 at Gamma-secretase of 7 nM. Same read-out and setting: for `CCN(c1cc(Cl)ccc1CO)S(=O)(=O)c1ccc(C)cc1` the value was 1100 nM. On the same count and under the same terms, for `C=C(C)CN(c1cc(Cl)ccc1CO)S(=O)(=O)c1ccc(C)cc1` the value was 400 nM; for `CCCC(C)N(c1cc(Cl)ccc1CO)S(=O)(=O)c1ccc(CC)cc1` (centres undefined), 360 nM.

`CCCC(C)N(c1cc(Cl)ccc1CO)S(=O)(=O)c1ccc(Br)cc1` (centres undefined) showed an IC50 at Gamma-secretase of 56 nM. `Cc1ccc(S(=O)(=O)N(CCCC(C)C)c2cc(Cl)ccc2CO)cc1`: on Gamma-secretase, the IC50 was found to be 920 nM. `CCCC(C)N(c1cc(Cl)ccc1CO)S(=O)(=O)c1cccc(C)c1` (centres undefined) came in with an IC50 at Gamma-secretase of 1200 nM.

One may read the IC50 as the concentration that inhibits the measured activity by half.
